Where no end group is shown, it is not given here.
Tests used:
[1] = system: HFD-induced prediabetic mouse model; test: Acute intra-third ventricle therapy in HFD-induced prediabetic (dietary obese) mice: GTT, fasting blood insulin, body weight; assay type: in vivo, C57BL/6 mice; details: for fasting blood insulin levels (hyperinsulinemia) / glucose intolerance (glucose tolerance test, GTT and AUC) / treatment effects compared with oxytocin at the same dose: 2-month HFD mice, intra-third ventricle; for fasting blood insulin levels (hyperinsulinemia) / glucose intolerance (glucose tolerance test, GTT and AUC): 2 μg per injection twice over overnight fasting, vs vehicle; for treatment effects compared with oxytocin at the same dose: 2 μg per injection twice, GTT and fasting insulin
Text: (§1) Animals. C57BL/6 mice were purchased from Jackson Laboratory. All mice were housed in standard conditions. High-fat diet was purchased from Research Diets, Inc. All animal procedures were approved by the Institutional Animal Care and Use Committee. Mice were subjected to body weight measurement on a daily basis surrounding surgical procedures or drug treatments to monitor physical recovery or the effect of drug treatment on body weight.
(§2) Third ventricle cannulation and drug treatment. Third ventricle cannulation procedure was as previously described (39). An ultra-precise small animal stereotactic apparatus (Kopf Instruments) was used to perform implantation of a guide cannula into the third ventricle of anesthetized mice, at the coordinates of 1.8 mm posterior to the bregma and 5.0 mm below the skull surface. Mice were allowed 1-2 weeks for postsurgical recovery. For drug treatment. Oxytocin (Bachem Americas, Inc.), [Ser4, Ile8]-oxytocin (Bachem Americas, Inc.), [Asu1,6]-oxytocin (American Peptide Company, Inc.) or control vehicle were injected via pre-implanted guide cannula into the third ventricle of individually housed mice.
(§3) Blood tests. For glucose tolerance test (GTT), overnight-fasted mice received one-time intraperitoneal injection of glucose (2 g/kg body weight), and blood glucose levels were measured using OneTouch Ultra2 (LifeScan, Inc.). Fasting blood insulin levels were measured with Ultra Sensitive Mouse Insulin ELISA kits (Crystal Chem). Glucose-stimulated insulin secretion (GSIS) test was performed as previously described (19). Overnight-fasted mice received one-time intraperitoneal injection of glucose (3 g/kg body weight), and blood insulin levels were measured at 3 min. and 20 min. after the injection.
Acute oxytocin therapy reverses insulin resistance in dietary obese mice independently of body weight. […] To experimentally address whether oxytocin could have an anti-diabetic action, and independently of its anti-obesity effect, an acute oxytocin therapy paradigm was applied to dietary obese mice to avoid confounding body weight changes, so that the potential anti-diabetes effect of oxytocin could be dissected from its anti-obesity effect. Adult male C57BL/6 mice […] of high-fat diet (HFD) feeding since weaning to develop pre-diabetic glucose intolerance and hyperinsulinemia. Then these mice received third-ventricle implantation of guide cannula followed by postsurgical recovery. Oxytocin was administered via pre-implanted third-ventricle cannula at a dose of 2 μg per injection twice over an overnight fasting period, one at the starting point of fasting and the other at 30 min prior to glucose tolerance test (GTT). Mice of treatment control group received intra-third ventricle vehicle injections.
Acute [Ser4, Ile8]-oxytocin therapy improves insulin resistance in dietary obese mice independently of body weight. Having observed the anti-insulin resistance effect of oxytocin, it was next investigated whether oxytocin peptide analogs have similar or stronger treatment effect. The purpose of this experiment was two-fold. First, was to investigate whether the anti-insulin resistance action of oxytocin could be extended to oxytocin analogs. […] Existing oxytocin peptide analogs were screened. [Ser4, Ile8]-oxytocin came out of the screen as a good candidate. […] This stronger anti-insulin resistance effect of [Ser4, Ile8]-oxytocin is in line with structure-based theoretical prediction of drug effects. The substitution of glutamine at amino acid position 4 of oxytocin with serine has two direct effects on peptide function—it strengthens the α-helical structure in peptide (13), which leads to an overall structural stabilization, longer drug duration, and better protein binding property with signaling partners; it also increases the hydrophobicity of peptide, which leads to enhanced membrane permeability and improved tissue distribution. […]

[2] = system: STZ-induced diabetic mice; test: 7-day intra-third ventricle pretreatment in STZ-induced diabetic mice: GTT, fasting blood insulin, GSIS, body weight; assay type: in vivo, C57BL/6 mice; details: vs STZ control; for first-phase glucose-stimulated insulin secretion (GSIS): blood insulin 3 min after glucose 3 g/kg i.p.; for fasting blood insulin levels / glucose intolerance (glucose tolerance test, GTT and AUC): pretreatment twice per day for 7 days, intra-third ventricle, 1 μg per injection (1 mg [sic] for [Ser4, Ile8]-oxytocin), STZ 40 mg/kg i.p. Day 4 to Day 7
Text: as §1, §2, §3
Next, it was investigated if oxytocin therapy may treat diabetes by counteracting its main pathological changes of pancreatic beta cell dysfunction and impaired insulin secretion. […] Experimentally, adult C57BL/6 mice on normal chow diet received intra-third ventricle implantation of cannula and postsurgical recovery. Oxytocin pretreatment was given at 1 μg per injection twice per day for 7 consecutive days via pre-implanted cannula, and non-treatment group received vehicle injections. From Day 4 to Day 7 during oxytocin treatment, mice simultaneously received intraperitoneal injections of STZ at 40 mg/kg body weight per day for 4 days to induce diabetes.
The same test strategy of pretreating mice with [Ser4, Ile8]-oxytocin was employed and then evaluating if it could attenuate the extent of STZ-induced beta cell dysfunction and diabetes. Adult chow-fed C57BL/6 mice first received intra-third ventricle injections of [Ser4, Ile8]-oxytocin at 1 mg per injection twice per day for 7 consecutive days. Non-treatment control mice received intra-third ventricle injections of vehicle instead of [Ser4, Ile8]-oxytocin. From Day 4 to Day 7 of [Ser4, Ile8]-oxytocin treatment, both treatment and control groups received intraperitoneal injections of STZ at 40 mg/kg body weight per injection per day for 4 days. The same panel of examinations were performed including glucose tolerance test, fasting blood insulin levels and glucose-stimulated insulin secretion in these mice.
Finally [Asu1,6]-oxytocin was tested for potential […] protection and anti-diabetic effects using an STZ-induced diabetic mouse model. [Asu1,6]-oxytocin pretreatment was given to adult chow-fed C57BL/6 mice via intra-third ventricle injections at 1 μg per injection b.i.d. for 7 consecutive days. Vehicle injections were given in parallel to non-treatment control group. From Day 4 to Day 7 of [Asu1,6]-oxytocin treatment, mice were subjected to STZ induction of diabetes at 40 mg/kg body weight per intraperitoneal injection per day for 4 days. Following [Asu1,6]-oxytocin and STZ treatments, mice were evaluated for glucose tolerance test, fasting blood insulin levels, and glucose-stimulated insulin secretion.

[3] = system: normal rats; details: central or peripheral administration; normal rats (5); cited from earlier work
[4] = system: normal men; details: normal men (29); cited from earlier work
[5] = system: type-1 diabetic patients; details: type-1 diabetic patients (28); cited from earlier work
[6] = system: obesity; details: cited from earlier work
[7] = system: uterine contractile response; details: of natural oxytocin, literature report (36); cited from earlier work

| Compound | fasting blood insulin levels (hyperinsulinemia) [1] | glucose intolerance (glucose tolerance test, GTT and AUC) [1] | treatment effects compared with oxytocin at the same dose [1] | first-phase glucose-stimulated insulin secretion (GSIS) ([2]; 7-day pretreatment, STZ mice) | fasting blood insulin levels [2] | glucose intolerance (glucose tolerance test, GTT and AUC) [2] | insulin resistance ([1]; obesity-induced type-2 prediabetic mice, acute treatment) | second-phase glucose-stimulated insulin secretion (GSIS) ([2]; blood insulin 20 min after glucose 3 g/kg i.p., 7-day pretreatment, STZ mice) | pancreatic insulin secretion [3] | pancreatic insulin secretion [4] | pancreatic insulin secretion [5] | obesity ([6]; chronic central or peripheral oxytocin treatment (25; 37)) | food intake ([6]; oxytocin treatment (37)) | intrinsic activity relative to natural oxytocin [7] |
| --- | --- | --- | --- | --- | --- | --- | --- | --- | --- | --- | --- | --- | --- | --- |
| [Ser4, Ile8]-oxytocin (CYISNCPIG; ends and bridges not checked; cysteine pairing not given here; UniProt P01178 20-28, looked up, variant Q4S L8I) [oxytocin analog: glutamine at position 4 substituted with serine, leucine at position 8 with isoleucine; Bachem Americas, Inc] | significantly corrected | significantly corrected glucose intolerance | higher efficacy than oxytocin | significantly higher levels of first-phase GSIS than non-treatment group | ameliorated circulating insulin insufficiency | significantly prevented STZ-induced glucose intolerance |  |  |  |  |  |  |  |  |
| CC[C@H](C)[C@@H]1NC(=O)[C@H](Cc2ccc(O)cc2)NC(=O)[C@@H](N)CSSC[C@@H](C(=O)N2CCC[C@H]2C(=O)N[C@@H](CC(C)C)C(=O)NCC(N)=O)NC(=O)[C@H](CC(N)=O)NC(=O)[C@H](CCC(N)=O)NC1=O [oxytocin, Cys-Tyr-Ile-Gln-Asn-Cys-Pro-Leu-Gly-NH2] | significantly improved | significantly improved |  | potentiated | protected fasting blood insulin levels | significantly improved glucose intolerance | can acutely reverse insulin resistance | potentiated | can stimulate pancreatic insulin secretion | can stimulate pancreatic insulin secretion | can stimulate pancreatic insulin secretion | can decrease obesity | decreases rather than increases food intake |  |
| [Asu1,6]-oxytocin | lowered fasting blood insulin levels | improved glucose intolerance | slightly weaker than oxytocin | appreciably improved | appreciably improved | appreciably improved |  |  |  |  |  |  |  | ~70% |

From patent publication US20140066373A1, “TREATING DIABETES WITH OXYTOCIN OR OXYTOCIN ANALOGS” (Albert Einstein College of Medicine of Yeshiva University, priority 2012, published 2014)
